Measurements as given in patent US9376449B2, “Indole carboxamide derivative” (Astellas Pharma Inc., priority 2012, dated 2016).

Assays:
[1] = target: human MT1 receptor (Homo sapiens, UniProt P48039); experiment: Activation of human MT1 receptor in receptor-expressing HEK293 cells (intracellular Ca2+, FLIPR); format: cell-based
Procedure: (§1) (1) Isolation of Human MT1 and MT2 Receptor and Construction of Expression Vector
(§2) A human MT1 receptor gene (GenBank Accession No.: NM_005958.3) and a human MT2 receptor gene (GenBank Accession No.: NM_005959.3) were each introduced into an expression vector pCDNA3.1/Zeo (Invitrogen, Inc.).
(§3) (2) Construction of Cells Stably Expressing Human MT1 and Human MT2 Receptor
(§4) The introduction was carried out according to the attached instructions, using a Lipofectoamine (registered trademark) 2000 Reagent (Invitrogen, Inc.). Zeocin and hygromycin were used as a resistant drug, and the cell was incubated for 15 days at 0.02 mg/mL and 0.05 mg/mL, respectively, thereby acquiring drug-resistant clones.
(§5) (3) Measurement of Intracellular Ca^2+ Concentration by FLIPR (Registered Trademark)
(§6) The respective stably expressing cells were dispensed into 96-well poly-D-lysine-coated plates (Falcon Co.) to 40,000 cells/well the day before the experiment, and incubated overnight in a DMEM (Invitrogen, Inc.) medium including 10% FBS at 37° C. and 5% CO2. The medium was replaced with a loading buffer (washing solution (Hank's balanced salt solution (HBSS), 20 mM HEPES-NaOH, 2.5 mM probenecid) including Fluo-4AM (Dojindo Co.) at 4 μM), and incubated for 1 hour at 37° C. and 5% CO2. Thereafter, the cells were washed with a plate washer (ELx405, BIO-TEK Instrument, Inc.) set with the washing solution, and set in an intracellular Ca^2+ concentration measuring systems (FLIPR (registered trademark), Molecular Device Co.). The test compound was dissolved in the washing solution in advance, diluted to a final concentration of −12 to −5 log M, set in a FLIPR (registered trademark) device together with the cells, and added to the cells in the device. At this time, a change in the intracellular Ca^2+ concentrations was measured.
(§7) Ex represents Example No. of the test compound.

[2] = target: T1, human MT2 receptor (Homo sapiens, UniProt P49286); experiment: Activation of human MT2 receptor in receptor-expressing HEK293 cells (intracellular Ca2+, FLIPR); format: cell-based
T1 sequence (P49286 1-362): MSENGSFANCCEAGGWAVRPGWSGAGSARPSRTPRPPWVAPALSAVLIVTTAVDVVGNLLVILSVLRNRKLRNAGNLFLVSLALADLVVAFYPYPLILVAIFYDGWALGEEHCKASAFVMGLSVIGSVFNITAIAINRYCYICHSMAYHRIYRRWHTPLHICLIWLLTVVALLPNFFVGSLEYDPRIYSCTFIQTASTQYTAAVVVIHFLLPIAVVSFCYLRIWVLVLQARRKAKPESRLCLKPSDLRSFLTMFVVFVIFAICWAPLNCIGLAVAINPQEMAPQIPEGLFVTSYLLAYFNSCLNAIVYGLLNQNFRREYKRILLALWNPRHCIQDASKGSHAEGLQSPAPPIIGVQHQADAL
Procedure: as §1, §2, §3, §4, §5, §6, §7

[3] = tested on: isolated urethra; experiment: Isolated urethra contractile action; set-up: species or system rat; conditions: test compound at 1 μM; contractile response by 10 μM phenylephrine as 100%; SD female rat urethra; read-out: Isolated urethra contraction (%)
Procedure: Test Example 2 Isolated Urethra Contractile Action
(1) Evaluation Test on Urethra Contractile Action of Test Compound Using Isolated Urethra
The urethra was isolated from an SD female rat having a body weight of 100 to 500 g. The isolated urethra was incised longitudinally to give a rectangular strip specimen having a width of about 3 mm, which was suspended in the circular muscle direction in 10 mL of a tissue bath filled with a Krebs-Henseleit solution (pH 7.4). The Krebs-Henseleit solution was bubbled with 95% O2 and 5% CO2, and kept at 37° C. The resting tension was set to 0.5 g to record the isometric contraction. After the resting tension was stabilized, contraction was elicited by the addition of 10 μM phenylephrine. After washing and stabilizing, the test compound was added cumulatively to a final concentration of −12 to −5 log M to measure a contractile response. By taking the contractile response by 10 μM phenylephrine as 100%, the ratio of the contractile response in the concentration of the test compound at 1 μM was calculated.
as §7

[4] = tested on: urethral pressure; experiment: Effect of test compound on urethral pressure in anesthetized rats; format: in vivo, rat; conditions: 0.1 mg/kg intravenously, urethane-anesthetized SD female rats
Text: Test Example 3 Test to Evaluate Effect of Test Compound on Urethral Pressure
It has been reported that an increase in the urethra pressure is useful for the treatment of urinary incontinence, particularly stress urinary incontinence (for example, Drugs, 64, 14, 1503-1516 (2004)). In order to confirm whether the compound of the present invention increases the urethra pressure and thus is useful for the treatment of urinary incontinence, particularly stress urinary incontinence, the following tests were carried out.
SD female rats were anesthetized with urethane and subjected to laparotomy. Then, the bladder apex was incised and a catheter was inserted from the bladder apex. Further, the catheter tip was ligated and fixed to be located in the proximal urethra portion. The catheter was connected to a pressure transducer and an infusion pump. Further, a catheter for administrating the compound was fitted into the femoral vein. Physiological saline was continuously infused into the urethra and the perfusion pressure in the urethra was measured. After the urethral pressure was stabilized, the test compound that had been dissolved in physiological saline, or physiological saline including 5% dimethylacetamide and 0.5% Cremophor was administered intravenously at 0.1 mg/kg, and a change in urethral pressures was measured.
Further, the results of administering an active metabolite of midodrine (ST-1059: purchased from CHEMIZON) (J. Urology, 118, 980-982 (1977)) which is an α1 adrenoceptor agonist and has an effect on stress urinary incontinence in rat doses (0.01 mg/kg) presumed to correspond to the clinical doses are referenced and shown in the Tables below. The increment value in the urethra pressures of ramelteon and the Example compounds of the present invention at the time of administration are shown in Table 4. Ex represents Example No. of the test compound.

[5] = CNS penetration: CSF to plasma unbound concentration ratio in rat; format: in vivo; conditions: CSF and plasma (unbound), iv, 15 minutes after intravenous administration, CCSF/Cplasma,u, read-out: Kp,uu,CSF,iv15min
Procedure: Test Example 4 Test for Evaluating CNS Penetration
(1) Measurement of Unbound Fraction (fp) in Rat Plasma
A test compound (100 μg/mL, 50% acetonitrile solution) at 1% (v/v) with respect to the amount of the plasma was added to rat plasma, and dispensed to a sample for a supernatant and a sample for the plasma. The sample for a supernatant was ultracentrifuged at 436,000×g and 37° C. for 140 minutes, and the sample for the plasma was incubated at 37° C. for 140 minutes.
After 140 minutes, the sample for a supernatant after the ultracentrifugation and the sample for the plasma were taken, and mixed with the blank plasma or the blank supernatant, respectively. Acetonitrile including an internal standard material was added to each of the samples, and after the centrifugation at 2150×g and 4° C. for 10 minutes the supernatant was injected into LC-MS/MS.
The unbound fraction in the plasma was calculated by the following equation.
(wherein fp: an unbound fraction in the plasma and D: a dilution rate of the plasma. fu,app=peak area ratio of supernatant sample/peak area ratio of the plasma sample, and peak area ratio=peak area of test compound/peak area of internal standard material).
(2) The CSF to Plasma Unbound Concentration Ratio in Rat
A 50% acetonitrile solution and an acetonitrile including internal standard material was added to the collected plasma or CSF. After centrifugation at 4° C. and 2150×g for 10 minutes, the supernatant was injected into LC-MS/MS, and the total concentration of the test compound in the plasma (Cplasma,t) and the concentration of the test compound in CSF (CCSF) were obtained. The unbound concentration in the plasma (Cplasma,u) of the test compound and the CSF-to plasma unbound concentration ratio (Kp,uu,CSF) of the test compound was calculated by the following equation.
as §7

[6] = tested on: 3T3; experiment: In vitro 3T3 NRU phototoxicity test; format: cell-based
Procedure: Test Example 6 Drug Pharmacokinetic Test, Safety Pharmacology Test, and Toxicity Test
Using some Example compounds of the present invention, a drug Pharmacokinetic test, a safety pharmacology test, and a toxicity test were carried out.
(iii) For the toxicity test, for example, an in vitro phototoxicity test was carried out. The evaluation of the in vitro phototoxicity test was carried out in accordance with Guidance for industry photosafety testing, Center for Drug Evaluation and Research Food and Drug Administration, 2003, which is a guideline of FDA (U.S. Food and Drug Administration), and Note for guidance on photosafety testing (CPMP/SWP/398/01, 2002) which is a guideline of EMA (European Medicines Agency), and the method described in OECD guideline for testing of chemicals 432: In vitro 3T3 NRU phototoxicity test, 2004, which is a test method described in the report of OECD.

Sequence of human MT1 receptor (P48039 whole entry): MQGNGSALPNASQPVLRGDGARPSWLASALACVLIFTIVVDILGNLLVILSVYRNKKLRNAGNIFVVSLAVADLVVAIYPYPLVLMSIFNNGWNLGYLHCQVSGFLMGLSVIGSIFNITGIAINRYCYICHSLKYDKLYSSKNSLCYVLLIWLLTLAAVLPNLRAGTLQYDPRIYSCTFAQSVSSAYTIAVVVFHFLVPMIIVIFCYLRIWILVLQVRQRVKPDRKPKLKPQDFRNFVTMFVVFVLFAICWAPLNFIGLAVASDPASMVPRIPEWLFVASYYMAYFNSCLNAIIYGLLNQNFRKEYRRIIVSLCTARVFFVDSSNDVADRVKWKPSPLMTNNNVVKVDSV

Emax ([1]; HEK293, maximum reaction by ramelteon taken as 100%, solvent only 0%, read-out: MT1 Emax (%)) [%]	EC50 ([1]; HEK293 cells stably expressing human MT1 and Gq/i chimeric G-protein, intracellular Ca2+ by FLIPR) [nM]	Emax ([2]; HEK293, maximum reaction by ramelteon taken as 100%, solvent only 0%) [%]	EC50 ([2]; HEK293 cells stably expressing human MT2 and Gq/i chimeric G-protein, intracellular Ca2+ by FLIPR) [nM]	Kp uu at 0.25 h [5]	melting point [°C]	Structure (SMILES)	activation at 1 µM [3] [%]	Increment value in the urethra pressures (mmHg) [4] [mmHg]	phototoxicity action [6]
104	5.4	103	17	0.07	–	CNC(=O)c1[nH]c2cc(F)c(OC)cc2c1CCNC(=O)C(F)F [Ex 15]	261	8.6 ± 0.9	no phototoxicity action
–	–	–	–	–	209 to 212	CNC(=O)c1[nH]c2cc(F)c(OC)cc2c1CCNC(C)=O [Ex 56, 3-(2-acetamidoethyl)-6-fluoro-5-methoxy-N-methyl-1H-indole-2-carboxamide]	–	–	–
–	–	–	–	–	196 to 200	CNC(=O)c1[nH]c2cc(F)c(OC)cc2c1CCNC(=O)C(F)F [Ex 57, 3-{2-[(difluoroacetyl)amino]ethyl}-6-fluoro-5-methoxy-N-methyl-1H-indole-2-carboxamide]	–	–	–
